According to paper PMC9248904, “Genomic and Chemical Decryption of the Bacteroidetes Phylum for Its Potential to Biosynthesize Natural Products” (Microbiology Spectrum, 2022):
Values after ≈ are worked out from the molar mass of the structure shown. Like-named read-outs stand apart in the source and are kept apart here. *1 amine or outer side, *2 acyl side, *3 side chain or, on linkers, in order; H or OH if unused. Where a SMILES comes first, the peptide text is derived from it. Bridges are numbered along the chain shown (N, C = ends). [ ]: non-standard residue; d: D form. The star is where a group is joined. Phe(3R-OH) = O=C([C@@H](N[*:1])[C@H](O[*:3])c1ccccc1)[*:2]; Asp(3S-OH) = N[C@H](C(=O)O)[C@H](O)C(=O)O; Ile(3R-OH) = CC[C@@](C)(O)[C@H](N)C(=O)O; d(aIle) = CC[C@H](C)[C@@H](N)C(=O)O; d(aThr) = C[C@@H](O)[C@@H](N)C(=O)O; X1 = CC(C)CCCCCC(N)C(C)C(=O)*; NMeV = CN[C@H](C(=O)O)C(C)C; X2 = CCCCCCCC(N)C(C)C(=O)*; Dap = NC[C@H](N)C(=O)O

What was measured:
Candida albicans FH2173 = assay: microbe, parasite or virus in culture; format: cell-based; conditions: C. albicans FH2173, at least triplicate; for MIC: MHIIB, 2 days 37°C, BacTiter-Glo, Iron -
Method: (§1) The MIC was determined by broth microdilution method in 96-well plates with 100 µL assay volume per well following EUCAST instructions ([116], [117]) for E. coli ATCC 35218, E. coli ATCC 25922 ΔTolC, E. coli MG1655, Pseudomonas aeruginosa ATCC 27853, P. aeruginosa PAO750, Klebsiella pneumoniae ATCC 13883, Moraxella catarrhalis ATCC 25238, Acinetobacter baumannii ATCC 19606, Bacillus subtilis DSM 10, Staphylococcus aureus ATCC 25923, and Micrococcus luteus DSM 20030. Listeria monocytogenes DSM 20600 (1 day of incubation at 37°C) and Mycobacterium smegmatis ATCC 607 (2 days of incubation at 37°C) were grown in BHI broth supplemented with 1% (vol/vol) Tween 80. Candida albicans FH2173 was grown in MHIIB over 2 days of incubation at 37°C (pre-culture 2 days at 28°C). Approximate inoculation cell density for all strains was 500,000 CFU/mL, except 1,000,000 CFU/mL were used for M. smegmatis and C. albicans. For all fungal screenings 100,000 spores/mL were used and incubated at 37°C for Aspergillus flavus ATCC 9170 (MHIIB) and 25°C for Z. tritici MUCL45407 (4 g/L yeast extract, 4 g/L malt extract, 4 g/L sucrose) and Fusarium oxysporum ATCC 7601 (potato dextrose broth, Sigma). Growth inhibition was detected by optical density (600 nm) or for M. luteus, L. monocytogenes, C. albicans, M. smegmatis, and all fungi by quantification of free ATP using BacTiter-Glo after 24 to 48 h (72 h for Z. tritici). All MIC assays were performed at least in triplicate. FE(III)-citrate was added at molar ratios of 1:1 to samples in DMSO to test compounds in their iron bound conformation.

[1] = test system: Fusarium oxysporum ATCC 7601; assay: microbe, parasite or virus in culture; format: cell-based
Method: as §1

Z. tritici MUCL45407 = assay: microbe, parasite or virus in culture; format: cell-based
Method: as §1

E. coli ATCC 25922 ΔTolC = format: cell-based, Escherichia coli; conditions: broth microdilution, 96-well, EUCAST, OD600, Iron -, at least triplicate
Method: as §1

E. coli ATCC 35218 = format: cell-based, Escherichia coli
Method: as §1

E. coli MG1655 = format: cell-based, Escherichia coli; conditions: broth microdilution, 96-well, EUCAST, OD600, Iron -, at least triplicate
Method: as §1

P. aeruginosa PAO750 = format: cell-based, Pseudomonas aeruginosa; conditions: broth microdilution, 96-well, EUCAST, OD600, Iron -, at least triplicate
Method: as §1

[2] = test system: Acinetobacter baumannii ATCC 19606; format: cell-based
Method: as §1

Bacillus subtilis DSM 10 = format: cell-based
Method: as §1

[3] = test system: Klebsiella pneumoniae ATCC 13883; format: cell-based
Method: as §1

[4] = test system: Micrococcus luteus DSM 20030; format: cell-based
Method: as §1

[5] = test system: Moraxella catarrhalis ATCC 25238; format: cell-based
Method: as §1

[6] = test system: Pseudomonas aeruginosa ATCC 27853; format: cell-based
Method: as §1

[7] = test system: Staphylococcus aureus ATCC 25923; format: cell-based
Method: as §1

[8] = test system: Aspergillus flavus ATCC 9170; assay: microbe, parasite or virus in culture; format: cell-based
Method: as §1

[9] = test system: Mycobacterium smegmatis ATCC 607; assay: microbe, parasite or virus in culture; format: cell-based; conditions: M. smegmatis ATCC 607, BHI broth + 1% Tween 80, 2 days 37°C, BacTiter-Glo, Iron -, at least triplicate
Method: as §1

[10] = test system: Listeria monocytogenes DSM 20600; format: cell-based; conditions: L. monocytogenes DSM 20600; BHI broth + 1% Tween 80, 1 day 37°C; BacTiter-Glo; Iron -; at least triplicate
Method: as §1

[11] = Candida albicans, 48 h, read-out: MIC
[12] = Fusarium oxysporum, ATCC7601, F. oxysporum ATCC 7601, potato dextrose broth, 25°C, 100,000 spores/mL, BacTiter-Glo, Iron -, at least triplicate, read-out: MIC
[13] = Z. tritici MUCL45407, 25°C, 72 h, 100,000 spores/mL, BacTiter-Glo, Iron -, at least triplicate
[14] = A. flavus ATCC 9170, MHIIB, 37°C, 100,000 spores/mL, BacTiter-Glo, Iron -, at least triplicate
[15] = F. oxysporum ATCC 7601, potato dextrose broth, 25°C, 100,000 spores/mL, BacTiter-Glo, Iron -, at least triplicate
[16] = E. coli ATCC 35218, broth microdilution, 96-well, EUCAST, OD600, chitinopeptins without iron (Iron -), at least triplicate
[17] = A. baumannii ATCC 19606, broth microdilution, 96-well, EUCAST, OD600, Iron -, at least triplicate
[18] = B. subtilis DSM 10, broth microdilution, 96-well, EUCAST, OD600, Iron -, at least triplicate
[19] = M. luteus DSM 20030, broth microdilution, 96-well, free ATP (BacTiter-Glo), Iron -, at least triplicate
[20] = M. catarrhalis ATCC 25238, broth microdilution, 96-well, EUCAST, OD600, Iron -, at least triplicate
[21] = P. aeruginosa ATCC 27853, broth microdilution, 96-well, EUCAST, OD600, Iron -, at least triplicate
[22] = S. aureus ATCC 25923, broth microdilution, 96-well, EUCAST, OD600, Iron -, at least triplicate
[23] = K. pneumoniae ATCC 13883, broth microdilution, 96-well, EUCAST, OD600, Iron -, at least triplicate

Molecule	MIC (E. coli ATCC 25922 ΔTolC) [µg/mL]	MIC (E. coli MG1655) [µg/mL]	MIC (P. aeruginosa PAO750) [µg/mL]	MIC (Candida albicans FH2173) [µg/mL]	MIC (Z. tritici MUCL45407; [13]) [µg/mL]	MIC [8, 14] [µg/mL]	MIC [1, 15] [µg/mL]	MIC (E. coli ATCC 35218; [16]) [µg/mL]	MIC [2, 17] [µg/mL]	MIC (Bacillus subtilis DSM 10; [18]) [µg/mL]	MIC [4, 19] [µg/mL]	MIC [5, 20] [µg/mL]	MIC [6, 21] [µg/mL]	MIC [7, 22] [µg/mL]	MIC [9] [µg/mL]	also measured
C[C@@H]1[C@H](O)[C@@H](C)/C=C/C=C/C=C/C=C/C=C/C=C/C=C/[C@H](O[C@@H]2O[C@H](C)[C@@H](O)[C@H](N)[C@@H]2O)C[C@@H]2O[C@](O)(C[C@@H](O)C[C@@H](O)[C@H](O)CC[C@@H](O)C[C@@H](O)CC(=O)O[C@H]1C)C[C@H](O)[C@H]2C(=O)O [Amphotericin B, reference compound]	–	–	–	–	–	–	–	–	–	–	–	–	–	–	–	MIC (Candida albicans FH2173; [11]): 4 µg/mL (≈ 4.33 µM); MIC [1, 12]: 4 µg/mL (≈ 4.33 µM); MIC (Z. tritici MUCL45407; Zymoseptoria tritici, MUCL45407, 72 h): 0.031 µg/mL (≈ 0.0335 µM)
CC[C@H](C)[C@H]1NC(=O)[C@H]([C@H](O)c2ccccc2)NC(=O)[C@H]([C@H](O)C(=O)O)NC(=O)[C@@H](C)NC(=O)[C@H](NC(=O)[C@H](C(C)C)N(C)C(=O)C(C)C(N)CCCCCC(C)C)[C@@H](C)OC(=O)[C@H]([C@](C)(O)CC)NC(=O)[C@H]([C@H](O)C(=O)O)NC(=O)[C@H](CC(C)C)NC(=O)[C@H]([C@H](O)C(=O)O)NC(=O)[C@@H](CC(C)C)NC(=O)[C@H](CN)NC(=O)[C@@H](CCCCN)NC(=O)[C@H](CO)NC1=O (stereo partly drawn) [Chitinopeptin A] (X1-[NMeV][d(aThr)][dA][Asp(3S-OH)][Phe(3R-OH)][d(aIle)]S[dK][Dap][dL][Asp(3S-OH)]L[Asp(3S-OH)][Ile(3R-OH)]; ester 2-C)	> 64	> 256	> 64	4 (≈ 2.21 µM)	16 (≈ 8.84 µM)	–	–	–	–	–	–	–	–	–	–	MIC (E. coli ATCC 35218; ATCC 35218): > 64 µg/mL; MIC ([2]; ATCC 19606): 16 µg/mL (≈ 8.84 µM); MIC (Bacillus subtilis DSM 10; DSM 10): 4 µg/mL (≈ 2.21 µM); MIC, iron bound form (Bacillus subtilis DSM 10; DSM 10): 8 µg/mL (≈ 4.42 µM); MIC ([3]; ATCC 13883): > 64 µg/mL; MIC ([4]; DSM 20030): 32 µg/mL (≈ 17.7 µM); MIC ([5]; ATCC 25238): 2 µg/mL (≈ 1.11 µM); MIC, iron bound form ([5]; ATCC 25238): 4 µg/mL (≈ 2.21 µM); MIC ([6]; ATCC 27853): > 64 µg/mL; MIC ([7]; ATCC 25923): > 64 µg/mL; MIC ([8]; ATCC 9170): > 64 µg/mL; MIC, iron bound form (Candida albicans FH2173; Iron +: Fe(III)-citrate added at molar ratio 1:1): 32 µg/mL; MIC (Candida albicans FH2173; listed as 1): 4 to 8 µg/mL; MIC ([1]; ATCC 7601): > 64 µg/mL
CCCCCCCC(N)C(C)C(=O)N(C)[C@H](C(=O)N[C@H]1C(=O)N[C@H](C)C(=O)N[C@@H]([C@H](O)C(=O)O)C(=O)N[C@@H]([C@H](O)c2ccccc2)C(=O)N[C@H]([C@@H](C)CC)C(=O)N[C@@H](CO)C(=O)N[C@H](CCCCN)C(=O)N[C@@H](CN)C(=O)N[C@H](CC(C)C)C(=O)N[C@@H]([C@H](O)C(=O)O)C(=O)N[C@@H](CC(C)C)C(=O)N[C@@H]([C@H](O)C(=O)O)C(=O)N[C@@H]([C@](C)(O)CC)C(=O)O[C@@H]1C)C(C)C (stereo partly drawn) [Chitinopeptin B] (X2-[NMeV][d(aThr)][dA][Asp(3S-OH)][Phe(3R-OH)][d(aIle)]S[dK][Dap][dL][Asp(3S-OH)]L[Asp(3S-OH)][Ile(3R-OH)]; ester 2-C)	> 64	–	–	8 (≈ 4.46 µM)	16 (≈ 8.91 µM)	–	–	–	–	–	–	–	–	–	–	MIC (E. coli ATCC 35218; ATCC 35218): > 64 µg/mL; MIC ([2]; ATCC 19606): 64 µg/mL (≈ 35.7 µM); MIC (Bacillus subtilis DSM 10; DSM 10): 4 µg/mL (≈ 2.23 µM); MIC ([4]; DSM 20030): 32 µg/mL (≈ 17.8 µM); MIC ([5]; ATCC 25238): 2 µg/mL (≈ 1.11 µM); MIC ([6]; ATCC 27853): > 64 µg/mL; MIC ([7]; ATCC 25923): > 64 µg/mL; MIC ([8]; ATCC 9170): > 64 µg/mL; MIC (Candida albicans FH2173; listed as 2): 4 to 8 µg/mL; MIC ([1]; ATCC 7601): > 64 µg/mL
NNC(=O)c1ccncc1 [Isoniazid, reference compound]	–	–	–	–	–	–	–	–	–	–	–	–	–	–	–	MIC ([9]; Mycolicibacterium smegmatis, ATCC607, 48 h, read-out: MIC): 1 µg/mL
C[C@@H]1[C@H](O)[C@@H](C)/C=C/C=C/CC/C=C/C=C/C=C/C=C/C(O[C@H]2O[C@H](C)[C@@H](O)[C@H](N)[C@@H]2O)CC2O[C@](O)(CC(O)C(O)CCC(O)CC(O)CC(O)CC(=O)O[C@H]1C)CC(O)C2C(=O)O (stereo partly shown) [Nystatin, reference compound]	–	–	–	16 (≈ 17.3 µM)	0.5 (≈ 0.54 µM)	16 (≈ 17.3 µM)	4 (≈ 4.32 µM)	–	–	–	–	–	–	–	–	–
CC(C)(C)C(O)(CCc1ccc(Cl)cc1)Cn1cncn1 (stereo not shown) [Tebuconazole, reference compound]	–	–	–	–	–	–	–	–	–	–	–	–	–	–	–	MIC ([8]; Aspergillus flavus, ATCC9170, A. flavus ATCC 9170, MHIIB, 37°C, 100,000 spores/mL, BacTiter-Glo, Iron -, at least triplicate, read-out: MIC): 2 µg/mL (≈ 6.5 µM); MIC (Candida albicans FH2173; [11]): 2 µg/mL (≈ 6.5 µM); MIC [1, 12]: > 64 µg/mL; MIC (Z. tritici MUCL45407; Zymoseptoria tritici, Z. tritici MUCL45407, 25°C, 72 h, 100,000 spores/mL, BacTiter-Glo, Iron -, at least triplicate, read-out: MIC): 0.5 µg/mL (≈ 1.62 µM)
Chitinopeptin C1+C2	> 64	–	–	16	16	64	> 64	> 64	16	4	32	2	> 64	> 64	> 64	–
Chitinopeptin D1+D2	> 64	–	–	16	–	64	> 64	> 64	16	4	32	2	> 64	> 64	> 64	–
Gentamycin [reference compound]	0.25	0.5	0.125	–	–	–	–	0.125	16	≤ 0.031	≤ 0.031	0.125	1	0.063	–	MIC [3, 23]: ≤ 0.031 µg/mL; MIC [10]: ≤ 0.031 µg/mL
Rifamicin [reference compound]	2	16	16	–	–	–	–	4	2	≤ 0.031	≤ 0.031	≤ 0.031	32	≤ 0.031	8	MIC [3, 23]: 8 µg/mL; MIC [10]: ≤ 0.031 µg/mL
